Test system: MV-4-11 cells
Assay: Gene expression microarray analysis (Affymetrix PrimeView) and GSEA
Assay type: cell-based, human
Parameters: RFU PODN (11730768_x_at) / Fold change /veh PODN (11730768_x_at) / RFU LINC00158 (11744669_a_at) / Fold change /veh LINC00158 (11744669_a_at) / RFU DUSP10 (11751237_a_at) / Fold change /veh DUSP10 (11751237_a_at) / RFU ID3 (11757404_x_at) / Fold change /veh ID3 (11757404_x_at) / RFU PLEKHG5 (11737974_s_at) / Fold change /veh PLEKHG5 (11737974_s_at) / RFU LRRC4B (11730491_at) / Fold change /veh LRRC4B (11730491_at) / RFU GIMAP4 (11747438_a_at) / Fold change /veh GIMAP4 (11747438_a_at) / RFU KRT8 (11758183_x_at) / Fold change /veh KRT8 (11758183_x_at) / RFU CNN1 (11734310_a_at) / Fold change /veh CNN1 (11734310_a_at) / RFU VPS37D (11726825_at) / Fold change /veh VPS37D (11726825_at) / RFU C10orf10 (11716522_x_at) / Fold change /veh C10orf10 (11716522_x_at) / RFU KIR2DL2 /// KIR2DL4 /// KIR2DL5A /// KIR2DL5B /// KIR2DS1 /// KIR2DS2 /// KIR2DS3 /// KIR2DS4 /// KIR3DL3 /// KIR3DL3 /// KIR3DS1 (11738374_at) / Fold change /veh KIR2DL2 /// KIR2DL4 /// KIR2DL5A /// KIR2DL5B /// KIR2DS1 /// KIR2DS2 /// KIR2DS3 /// KIR2DS4 /// KIR3DL3 /// KIR3DL3 /// KIR3DS1 (11738374_at) / RFU C1QL1 (11718748_at) / Fold change /veh C1QL1 (11718748_at) / RFU TMPRSS4 (11747572_a_at) / Fold change /veh TMPRSS4 (11747572_a_at) / RFU HAMP (11756126_x_at) / Fold change /veh HAMP (11756126_x_at) / RFU RNFT2 (11725882_a_at) / Fold change /veh RNFT2 (11725882_a_at) / RFU NR4A2 (11747474_a_at) / Fold change /veh NR4A2 (11747474_a_at) / RFU ABCC12 (11746883_a_at) / Fold change /veh ABCC12 (11746883_a_at) / RFU TMEM136 (11760407_x_at) / Fold change /veh TMEM136 (11760407_x_at) / RFU CLDN22 /// WWC2 (11732394_at) / Fold change /veh CLDN22 /// WWC2 (11732394_at) / RFU HLA-DPB1 (11760878_x_at) / Fold change /veh HLA-DPB1 (11760878_x_at) / RFU SPINT1 (11716480_a_at) / Fold change /veh SPINT1 (11716480_a_at) / RFU GAP43 (11754022_s_at) / Fold change /veh GAP43 (11754022_s_at) / RFU A4GNT (11735810_at) / Fold change /veh A4GNT (11735810_at) / RFU PRB3 (11715151_x_at) / Fold change /veh PRB3 (11715151_x_at) / RFU TUBB4B (11761932_at) / Fold change /veh TUBB4B (11761932_at) / RFU CAPN14 (11732068_a_at) / Fold change /veh CAPN14 (11732068_a_at) / RFU TMCC2 (11721928_a_at) / Fold change /veh TMCC2 (11721928_a_at) / RFU IRGQ (11745062_a_at) / Fold change /veh IRGQ (11745062_a_at) / RFU FAM174B (11720279_a_at) / Fold change /veh FAM174B (11720279_a_at) / RFU TMPRSS4 (11748680_a_at) / Fold change /veh TMPRSS4 (11748680_a_at) / RFU FAM212B (11763350_a_at) / Fold change /veh FAM212B (11763350_a_at) / RFU PLEKHG5 (11743358_a_at) / Fold change /veh PLEKHG5 (11743358_a_at) / RFU ZSCAN30 (11745921_a_at) / Fold change /veh ZSCAN30 (11745921_a_at) / RFU CMKLR1 (11741424_a_at) / Fold change /veh CMKLR1 (11741424_a_at) / RFU LOC101060620 /// MAPK8IP1 (11723275_at) / Fold change /veh LOC101060620 /// MAPK8IP1 (11723275_at) / RFU SPTSSB (11747773_x_at) / Fold change /veh SPTSSB (11747773_x_at) / RFU PRSS12 (11739890_at) / Fold change /veh PRSS12 (11739890_at) / RFU BIN1 (11741810_x_at) / Fold change /veh BIN1 (11741810_x_at) / RFU WNT11 (11732464_a_at) / Fold change /veh WNT11 (11732464_a_at) / RFU C10orf10 (11716521_a_at) / Fold change /veh C10orf10 (11716521_a_at) / RFU C5orf56 (11738089_at) / Fold change /veh C5orf56 (11738089_at) / RFU CYB561 (11721691_x_at) / Fold change /veh CYB561 (11721691_x_at) / RFU ANKRD19P (11752326_a_at) / Fold change /veh ANKRD19P (11752326_a_at) / RFU OR2T12 /// OR2T33 /// OR2T8 (11738714_s_at) / Fold change /veh OR2T12 /// OR2T33 /// OR2T8 (11738714_s_at) / RFU VCAN (11748164_a_at) / Fold change /veh VCAN (11748164_a_at) / RFU JSRP1 (11732532_at) / Fold change /veh JSRP1 (11732532_at) / RFU KRTAP10-11 (11738290_x_at) / Fold change /veh KRTAP10-11 (11738290_x_at) / RFU MYO3A (11730013_a_at) / Fold change /veh MYO3A (11730013_a_at) / RFU EBF3 (11725865_a_at) / Fold change /veh EBF3 (11725865_a_at) / RFU CAMK2N1 (11719241_x_at) / Fold change /veh CAMK2N1 (11719241_x_at) / RFU C5orf56 (11738088_a_at) / Fold change /veh C5orf56 (11738088_a_at) / RFU OLFML3 (11715873_a_at) / Fold change /veh OLFML3 (11715873_a_at) / RFU LOC100653217 /// NTM (11731650_a_at) / Fold change /veh LOC100653217 /// NTM (11731650_a_at) / RFU MAPK11 (11762145_a_at) / Fold change /veh MAPK11 (11762145_a_at) / RFU FIZ1 (11724087_x_at) / Fold change /veh FIZ1 (11724087_x_at) / RFU OASL (11726364_x_at) / Fold change /veh OASL (11726364_x_at) / RFU SOX15 (11748057_x_at) / Fold change /veh SOX15 (11748057_x_at) / RFU CD79A (11719716_a_at) / Fold change /veh CD79A (11719716_a_at) / RFU HIST1H1D (11736915_at) / Fold change /veh HIST1H1D (11736915_at) / RFU CASKIN2 (11723855_a_at) / Fold change /veh CASKIN2 (11723855_a_at) / RFU LOC730098 (11760151_x_at) / Fold change /veh LOC730098 (11760151_x_at) / RFU OR4N2 (11742367_at) / Fold change /veh OR4N2 (11742367_at) / RFU PRRT2 (11749266_a_at) / Fold change /veh PRRT2 (11749266_a_at) / RFU SNX32 (11753110_a_at) / Fold change /veh SNX32 (11753110_a_at) / RFU CDHR5 (11726645_a_at) / Fold change /veh CDHR5 (11726645_a_at) / RFU RCAN1 (11760418_a_at) / Fold change /veh RCAN1 (11760418_a_at) / RFU FAM167A (11723789_a_at) / Fold change /veh FAM167A (11723789_a_at) / RFU FAM26E (11764081_at) / Fold change /veh FAM26E (11764081_at) / RFU ISYNA1 (11749810_s_at) / Fold change /veh ISYNA1 (11749810_s_at) / RFU ACY1 (11761880_at) / Fold change /veh ACY1 (11761880_at) / RFU 11764098_at / Fold change /veh 11764098_at / RFU SAMD14 (11745864_x_at) / Fold change /veh SAMD14 (11745864_x_at) / RFU NPB (11741838_a_at) / Fold change /veh NPB (11741838_a_at) / RFU TMPRSS6 (11731388_a_at) / Fold change /veh TMPRSS6 (11731388_a_at) / RFU KRTAP10-2 (11738614_at) / Fold change /veh KRTAP10-2 (11738614_at) / RFU ARHGAP8 /// PRR5-ARHGAP8 (11727945_x_at) / Fold change /veh ARHGAP8 /// PRR5-ARHGAP8 (11727945_x_at) / RFU KRTAP5-7 /// NADSYN1 (11734609_at) / Fold change /veh KRTAP5-7 /// NADSYN1 (11734609_at) / RFU RASL12 (11751679_a_at) / Fold change /veh RASL12 (11751679_a_at) / RFU CDKN2B (11736163_a_at) / Fold change /veh CDKN2B (11736163_a_at) / RFU PRF1 (11729649_at) / Fold change /veh PRF1 (11729649_at) / RFU, ZNF638 /// ZNF638-IT1 / Fold change vs veh, ZNF638 /// ZNF638-IT1 / RFU, PANK3 / Fold change vs veh, PANK3 / RFU, SH3YL1 / Fold change vs veh, SH3YL1 / RFU, ZEB2 / Fold change vs veh, ZEB2 / RFU, NRIP1 / Fold change vs veh, NRIP1 / RFU, PTTG1IP / Fold change vs veh, PTTG1IP / RFU, CAPN2 / Fold change vs veh, CAPN2 / RFU, MED14 / Fold change vs veh, MED14 / RFU, SNORA58 / Fold change vs veh, SNORA58 / RFU, C1orf63 / Fold change vs veh, C1orf63 / RFU, LRRFIP1 / Fold change vs veh, LRRFIP1 / RFU, NDUFAF7 / Fold change vs veh, NDUFAF7 / RFU, SLC12A2 / Fold change vs veh, SLC12A2 / RFU, IBTK / Fold change vs veh, IBTK / RFU, ESF1 / Fold change vs veh, ESF1 / Fold change vs veh, TMEM50B / RFU, TAOK1 / Fold change vs veh, TAOK1 / RFU, ACBD3 / Fold change vs veh, ACBD3 / RFU, TMA16 / Fold change vs veh, TMA16 / RFU, RWDD3 / Fold change vs veh, RWDD3 / RFU, BCAT1 / Fold change vs veh, BCAT1 / RFU, EDEM3 / Fold change vs veh, EDEM3 / RFU, TMEM33 / Fold change vs veh, TMEM33 / RFU, WDR75 / Fold change vs veh, WDR75 / RFU, AHCTF1 / Fold change vs veh, AHCTF1 / RFU, TFRC / Fold change vs veh, TFRC / RFU, ZDHHC17 / Fold change vs veh, ZDHHC17 / RFU, NOM1 / Fold change vs veh, NOM1 / RFU, ARL8B / Fold change vs veh, ARL8B / RFU, ZBTB11 / Fold change vs veh, ZBTB11 / RFU, TAMM41 / Fold change vs veh, TAMM41 / RFU, KIAA1704 /// LOC100996395 / Fold change vs veh, KIAA1704 /// LOC100996395 / RFU, ING1 / Fold change vs veh, ING1 / RFU, TRMT61B / Fold change vs veh, TRMT61B / RFU, FUBP3 / Fold change vs veh, FUBP3 / RFU, TP53 / Fold change vs veh, TP53 / RFU, TNKS2 / Fold change vs veh, TNKS2 / RFU, ZFP14 / Fold change vs veh, ZFP14 / RFU, ACTR2 / Fold change vs veh, ACTR2 / RFU, PPP3R1 / Fold change vs veh, PPP3R1 / RFU, PIK3R1 / Fold change vs veh, PIK3R1 / RFU, HNRNPA1 / Fold change vs veh, HNRNPA1 / RFU, RNF170 / Fold change vs veh, RNF170 / RFU, ZNF28 / Fold change vs veh, ZNF28 / RFU, RNGTT / Fold change vs veh, RNGTT / RFU, OGT / Fold change vs veh, OGT / RFU, BRD1 / Fold change vs veh, BRD1 / RFU, MARS / Fold change vs veh, MARS / RFU, ZNF655 / Fold change vs veh, ZNF655 / RFU, FAHD1 / Fold change vs veh, FAHD1 / RFU, BDP1 / Fold change vs veh, BDP1 / RFU, LRRCC1 / Fold change vs veh, LRRCC1 / RFU, ARID1A / Fold change vs veh, ARID1A / RFU, ZNF146 / Fold change vs veh, ZNF146 / RFU, ZNF330 / Fold change vs veh, ZNF330 / RFU, GPN3 / Fold change vs veh, GPN3 / RFU, C9orf123 / Fold change vs veh, C9orf123 / RFU, N4BP2L2 / Fold change vs veh, N4BP2L2 / RFU, ARFIP1 / Fold change vs veh, ARFIP1 / RFU, FAM179B / Fold change vs veh, FAM179B / RFU, BCL10 / Fold change vs veh, BCL10 / RFU, UHRF1BP1L / Fold change vs veh, UHRF1BP1L / RFU, BET1 / Fold change vs veh, BET1 / RFU, CNOT2 / Fold change vs veh, CNOT2 / RFU, ZNF268 / Fold change vs veh, ZNF268 / Fold change vs veh, ZNF507 / RFU, DGCR2 / Fold change vs veh, DGCR2 / RFU, WDSUB1 / Fold change vs veh, WDSUB1 / Fold change vs veh, HSP90B1 /// MIR3652 / RFU, ADSS / Fold change vs veh, ADSS / RFU, GK / Fold change vs veh, GK / RFU, ZNF148 / Fold change vs veh, ZNF148 / RFU, TAF9 / Fold change vs veh, TAF9 / RFU, SLC1A5 / Fold change vs veh, SLC1A5 / RFU, SLMO2 / Fold change vs veh, SLMO2 / RFU, ABCC4 / Fold change vs veh, ABCC4 / RFU, LOC101060439 /// RAP1B / Fold change vs veh, LOC101060439 /// RAP1B / RFU, RFX7 / Fold change vs veh, RFX7 / RFU, GTPBP10 / Fold change vs veh, GTPBP10 / RFU, CNEP1R1 / Fold change vs veh, CNEP1R1 / RFU, BIVM-ERCC5 /// ERCC5 / Fold change vs veh, BIVM-ERCC5 /// ERCC5 / RFU, ILF3 / Fold change vs veh, ILF3 / RFU 11762660_at / Fold change /veh 11762660_at / RFU VCAN (11757783_s_at) / Fold change /veh VCAN (11757783_s_at) / RFU DDX43 (11728927_at) / Fold change /veh DDX43 (11728927_at) / RFU KRT8 (11758188_x_at) / Fold change /veh KRT8 (11758188_x_at) / RFU NKD1 (11759106_at) / Fold change /veh NKD1 (11759106_at) / RFU SRD5A1 (11742802_a_at) / Fold change /veh SRD5A1 (11742802_a_at) / RFU TPSAB1 /// TPSB2 (11721975_s_at) / Fold change /veh TPSAB1 /// TPSB2 (11721975_s_at) / RFU GSTM3 (11746129_a_at) / Fold change /veh GSTM3 (11746129_a_at) / RFU IL23R (11737362_x_at) / Fold change /veh IL23R (11737362_x_at) / RFU TMEM51 (11727254_a_at) / Fold change /veh TMEM51 (11727254_a_at) / RFU PIWIL2 (11732686_x_at) / Fold change /veh PIWIL2 (11732686_x_at) / RFU ORM1 (11744905_x_at) / Fold change /veh ORM1 (11744905_x_at) / RFU CCDC152 (11743942_at) / Fold change /veh CCDC152 (11743942_at) / RFU ECM1 (11717891_a_at) / Fold change /veh ECM1 (11717891_a_at) / RFU IL23R (11748794_a_at) / Fold change /veh IL23R (11748794_a_at) / RFU TNFAIP8L3 (11732012_x_at) / Fold change /veh TNFAIP8L3 (11732012_x_at) / RFU MBOAT4 (11741988_at) / Fold change /veh MBOAT4 (11741988_at) / RFU 11764193_at / Fold change /veh 11764193_at / RFU TMEM53 (11763286_at) / Fold change /veh TMEM53 (11763286_at) / RFU MAGEB2 (11727129_at) / Fold change /veh MAGEB2 (11727129_at) / RFU TMEM200A (11744735_a_at) / Fold change /veh TMEM200A (11744735_a_at) / RFU CCDC152 (11751479_a_at) / Fold change /veh CCDC152 (11751479_a_at) / RFU FAM211A (11726209_a_at) / Fold change /veh FAM211A (11726209_a_at) / RFU RGS16 (11746705_a_at) / Fold change /veh RGS16 (11746705_a_at) / RFU VCAN (11755009_s_at) / Fold change /veh VCAN (11755009_s_at) / RFU RHOB (11743442_s_at) / Fold change /veh RHOB (11743442_s_at) / RFU RGS16 (11720943_a_at) / Fold change /veh RGS16 (11720943_a_at) / RFU RGS16 (11720944_at) / Fold change /veh RGS16 (11720944_at) / RFU, VPS4B / Fold change vs veh, VPS4B / RFU, CREB1 / Fold change vs veh, CREB1 / RFU, DNAJC13 / Fold change vs veh, DNAJC13 / RFU, GNAQ / Fold change vs veh, GNAQ / RFU, CDK5R1 / Fold change vs veh, CDK5R1 / RFU, ZRANB3 / Fold change vs veh, ZRANB3 / RFU, CUL4A / Fold change vs veh, CUL4A / RFU, CCNY / Fold change vs veh, CCNY / RFU, UFL1 / Fold change vs veh, UFL1 / RFU, COG3 / Fold change vs veh, COG3 / RFU, DIAPH2 / Fold change vs veh, DIAPH2 / RFU, SKA2 / Fold change vs veh, SKA2 / RFU, AFF3 / Fold change vs veh, AFF3 / RFU, LMF1 / Fold change vs veh, LMF1 / RFU, IPO11 / Fold change vs veh, IPO11 / RFU, DFFB / Fold change vs veh, DFFB / RFU, FOXP1 / Fold change vs veh, FOXP1 / RFU, CARD8 / Fold change vs veh, CARD8 / RFU, STRN3 / Fold change vs veh, STRN3 / RFU, ADK / Fold change vs veh, ADK / RFU, RASSF2 / Fold change vs veh, RASSF2 / RFU, WIPF1 / Fold change vs veh, WIPF1 / RFU, LARP1B / Fold change vs veh, LARP1B / RFU, RASA1 / Fold change vs veh, RASA1 / RFU, RB1 / Fold change vs veh, RB1 / RFU, PPFIA1 / Fold change vs veh, PPFIA1 / RFU, MAT2A / Fold change vs veh, MAT2A / RFU, CCT5 / Fold change vs veh, CCT5 / RFU, WDR92 / Fold change vs veh, WDR92 / RFU, CUX1 / Fold change vs veh, CUX1 / RFU, TTC7A / Fold change vs veh, TTC7A / RFU, TMEM135 / Fold change vs veh, TMEM135 / RFU, DEPTOR / Fold change vs veh, DEPTOR / RFU, CPM / Fold change vs veh, CPM / RFU, DNAJB6 / Fold change vs veh, DNAJB6 / RFU, CACNA2D3 / Fold change vs veh, CACNA2D3 / RFU, DTX4 / Fold change vs veh, DTX4 / RFU, TFCP2 / Fold change vs veh, TFCP2 / RFU, GMCL1 /// GMCL1P1 / Fold change vs veh, GMCL1 /// GMCL1P1 / RFU, AEBP2 / Fold change vs veh, AEBP2 / RFU, SNHG1 /// SNORD22 /// SNORD25 /// SNORD26 /// SNORD27 /// SNORD28 /// SNORD29 /// SNORD31 / Fold change vs veh, SNHG1 /// SNORD22 /// SNORD25 /// SNORD26 /// SNORD27 /// SNORD28 /// SNORD29 /// SNORD31 / Fold change (Aza/veh), C12orf56 (ProbeSet 11735607_a_at) / Fold change (ACY-1035/veh), C12orf56 (ProbeSet 11735607_a_at) / Fold change (Aza/veh), FGFR1OP (ProbeSet 11751329_s_at) / Fold change (ACY-1035/veh), FGFR1OP (ProbeSet 11751329_s_at) / Fold change (Aza/veh), VPS36 (ProbeSet 11739960_a_at) / Fold change (ACY-1035/veh), VPS36 (ProbeSet 11739960_a_at) / RFU SYPL1 (11715823_x_at) / Fold change /veh SYPL1 (11715823_x_at) / RFU IGFBP7 (11715501_s_at) / Fold change /veh IGFBP7 (11715501_s_at) / RFU REEP3 (11722064_at) / Fold change /veh REEP3 (11722064_at) / RFU IGLL1 (11728026_x_at) / Fold change /veh IGLL1 (11728026_x_at): dose or concentration left out as unconfirmed
Settings: ProbeSet 11732370_a_at; LIST D

SMILES: Nc1ncn([C@@H]2O[C@H](CO)[C@@H](O)[C@H]2O)c(=O)n1 [azacitidine]
- RFU, CUX1: 199.77 RFU

From PMC5218480 (PLoS ONE, 2017)
